Counter-ions that a name gives are not always drawn.

The term melting point denotes the temperature of the solid-liquid transition. In turn, `CS(=O)(=O)O.CS(=O)(=O)O.Cc1cc(C(=O)NC(=N)N)cc2c1Oc1c(Cl)cc(NC(=O)CNC3CC3)cc1CS2(=O)=O` [Example 138, N-(4-Chloro-8-guanidinocarbonyl-6-methyl-10,10-dioxo-10,11-dihydro-5-oxa-10lambda*6*-thia-dibenzo[a,d]cyclohepten-2-yl)-2-cyclopropylamino-acetamide dimesylate] showed a melting point of 188 to 190 °C.

As for `NC(N)=NC(=O)c1cc(Cl)c2c(c1)S(=O)(=O)Cc1cccc(Cl)c1O2` (as salt: sulfonic acid salt) [Example 45, 4,6-Dichloro-10,10-dioxo-10,11-dihydro-5-oxa-10lambda*6*-thia-dibenzo[a,d]cycloheptene-8-carbonylguanidine, methane sulfonic acid salt], the melting point fell in the range of 270 to 271 °C.

As to `CS(=O)(=O)O.CS(=O)(=O)O.Cc1cc(C(=O)NC(=N)N)cc2c1Oc1c(Cl)cc(N(CCN3CCCC3)C(=O)OCC(C)C)cc1CS2(=O)=O` [Example 74, (4-Chloro-8-guanidinocarbonyl-6-methyl-10,10-dioxo-10,11-dihydro-5-oxa-10lambda*6*-thia-dibenzo[a,d]cycloheptene-2-yl)-(2-pyrrolidin-1-yl-ethyl)-carbamic acid isobutylester dimesylate], the melting point was in the range of 198 to 200 °C.

Take `CS(=O)(=O)O.CS(=O)(=O)O.CS(=O)(=O)O.Cc1cc(C(=O)NC(=N)N)cc2c1Oc1c(Cl)cc(N3CCN(CCN(C)C)CC3)cc1CS2(=O)=O` [Example 119, N-{4-Chloro-2-[4-(2-dimethylamino-ethyl)-piperazin-1-yl]-6-methyl-10,10-dioxo-10,11-dihydro-5-oxa-10lambda*6*-thia-dibenzo[a,d]cycloheptene-8-carbonyl}-guanidine trimesylate]: the melting point fell in the range of 243 to 245 °C.

Take `Cc1cc(C(=O)N=C(N)N)cc2c1Oc1c(Cl)cc(N3CCN(C4CC4)CC3=O)cc1CS2(=O)=O` (as salt: mesylate) [Example 58, N-[4-Chloro-2-(4-cyclopropyl-2-oxo-piperazin-1-yl)-6-methyl-10,10-dioxo-10,11-dihydro-5-oxa-10lambda*6*-thia-dibenzo[a,d]cycloheptene-8-carbonyl]-guanidine dimesylate]: the melting point fell in the range of 195 to 196 °C.

For `CS(=O)(=O)O.CS(=O)(=O)O.Cc1cc(C(=O)NC(=N)N)cc2c1Oc1c(Cl)cc(NC(=O)CNC(C)C)cc1CS2(=O)=O` [Example 141, N-(4-Chloro-8-guanidinocarbonyl-6-methyl-10,10-dioxo-10,11-dihydro-5-oxa-10lambda*6*-thia-dibenzo[a,d]cyclohepten-2-yl)-2-isopropylamino-acetamide dimesylate], the melting point was in the range of 192 to 194 °C.

`CCN(CCN(CC)c1cc(Cl)c2c(c1)CS(=O)(=O)c1cc(C(=O)NC(=N)N)cc(C)c1O2)Cc1cccs1.CS(=O)(=O)O.CS(=O)(=O)O` [Example 87, N-(4-Chloro-2-{ethyl-[2-(ethyl-thiophen-2-ylmethyl-amino)-ethyl]-amino}-6-methyl-10,10-dioxo-10,11-dihydro-5-oxa-10lambda*6*-thia-dibenzo[a,d]cycloheptene-8-carbonyl)-guanidine dimesylate] showed a melting point of 156 to 158 °C.

On to `CS(=O)(=O)O.CS(=O)(=O)O.CS(=O)(=O)O.Cc1cc(C(=O)NC(=N)N)cc2c1Oc1c(Cl)cc(N3CCN(Cc4cccc(N)c4)CC3)cc1CS2(=O)=O` [Example 127, N-{2-[4-(3-Amino-benzyl)-piperazin-1-yl]-4-chloro-6-methyl-10,10-dioxo-10,11-dihydro-5-oxa-10lambda*6*-thia-dibenzo[a,d]cycloheptene-8-carbonyl}-guanidine trimesylate], for which the melting point is 214 to 215 °C.

`CS(=O)(=O)O.CS(=O)(=O)O.CS(=O)(=O)O.Cc1cc(C(=O)NC(=N)N)cc2c1Oc1c(Cl)cc(NCCN3CCN(C)CC3)cc1CS2(=O)=O` [Example 62, N-{4-Chloro-6-methyl-2-[2-(4-methylpiperazin-1-yl)-ethylamino]-10,10-dioxo-10,11-dihydro-5-oxa-10lambda*6*-thia-dibenzo[a,d]cycloheptene-8-carbonyl}-guanidine trimesylate] displayed a melting point of 184 to 186 °C.

For the compound `CS(=O)(=O)O.CS(=O)(=O)O.Cc1cc(C(=O)NC(=N)N)cc2c1Oc1c(Cl)cc(NC(=O)CNC3CCCCC3)cc1CS2(=O)=O` [Example 139, N-(4-Chloro-8-guanidinocarbonyl-6-methyl-10,10-dioxo-10,11-dihydro-5-oxa-10lambda*6*-thia-dibenzo[a,d]cyclohepten-2-yl)-2-cyclohexylamino-acetamide dimesylate], the melting point is 194 to 196 °C.

Regarding `CS(=O)(=O)O.CS(=O)(=O)O.CS(=O)(=O)O.Cc1cc(C(=O)NC(=N)N)cc2c1Oc1c(Cl)cc(NCCN3CCN(CCO)CC3)cc1CS2(=O)=O` [Example 70, N-(4-Chloro-2-{2-[4-(2-hydroxy-ethyl)-piperazin-1-yl]-ethylamino}-6-methyl-10,10-dioxo-10,11-dihydro-5-oxa-10lambda*6*-thia-dibenzo{a,d}cycloheptene-8-carbonyl)-guanidine trimesylate], the melting point lay in the range of 218 to 220 °C.

For the compound `CS(=O)(=O)O.CS(=O)(=O)O.CS(=O)(=O)O.Cc1cc(C(=O)NC(=N)N)cc2c1Oc1c(Cl)cc(N3CCNCC3)cc1CS2(=O)=O` [Example 104, N-(4-Chloro-6-methyl-10,10-dioxo-2-piperazin-1-yl-10,11-dihydro-5-oxa-10lambda*6*-thia-dibenzo[a,d]cycloheptene-8-carbonyl)-guanidine trimesylate], the melting point is 203 to 205 °C.

`COCC(=O)N(CCN1CCOCC1)c1cc(Cl)c2c(c1)CS(=O)(=O)c1cc(C(=O)NC(=N)N)cc(C)c1O2.CS(=O)(=O)O.CS(=O)(=O)O` [Example 69, N-(4-Chloro-8-guanidinocarbonyl-6-methyl-10,10-dioxo-10,11-dihydro-5-oxa-10lambda*6*-thia-dibenzo[a,d]cyclohepten-2-yl)-2-methoxy-N-(2-morpholin-4-yl-ethyl)-acetamide dimesylate] showed a melting point of 168 to 169 °C.

In turn, `CS(=O)(=O)O.CS(=O)(=O)O.Cc1cc(C(=O)NC(=N)N)cc2c1Oc1c(Cl)cc(N3CCN(C(C)C)CC3=O)cc1CS2(=O)=O` [Example 60, N-[4-Chloro-2-(4-isopropyl-2-oxo-piperazin-1-yl)-6-methyl-10,10-dioxo-10,11-dihydro-5-oxa-10lambda*6*-thia-dibenzo[a,d]cycloheptene-8-carbonyl]-guanidine dimesylate] displayed a melting point of 196 to 198 °C.

As for `CS(=O)(=O)O.CS(=O)(=O)O.CS(=O)(=O)O.Cc1cc(C(=O)NC(=N)N)cc2c1Oc1c(Cl)cc(NCCNCCc3ccccn3)cc1CS2(=O)=O` [Example 83, N-{4-Chloro-6-methyl-10,10-dioxo-2-[2-(2-pyridin-2-yl-ethylamino)-ethylamino]-10,11-dihydro-5-oxa-10lambda*6*-thia-dibenzo[a,d]cycloheptene-8-carbonyl}-guanidine trimesylate], the melting point fell in the range of 196 to 198 °C.

The record behind these values is patent US8183234B2, “Tricyclic guanidine derivatives as sodium-proton exchange inhibitors” (Piramal Life Sciences Limited, priority 2004, dated 2012).
